Here are results for four molecules from patent US10028906B2, “Method and kit for treating a solid tumor and associated desmoplasia” (Rosalind Franklin Univ. of Medicine and Science, priority 2016, dated 2018).

Data set [1] concerns FC1199 orthotopic tumors. In words: in vivo FC1199 orthotopic tumors, tumor burden as pancreas weight. More on the design: species or system mice. Conditions: for tumor burden / tumor growth as measured by pancreas weight: orthotopic FC1199 tumors in mice, no day stated; for potentiation of the therapeutic effects of gemcitabine / chemotherapeutic agent in vivo: combination, pancreas weight, FIGS. 21 and 22. The text has this: FIGS. 1-24 show the in vitro and in vivo studies of CCNp37 (SEQ ID NO. 37) (Peptide 2 in the FIGS.) and CCNp38 (SEQ ID NO. 38) (Peptide 1 in the FIGS.) alone or in combination with a chemotherapeutic agent gemcitabine in treating pancreatic cells or orthotopic tumors implanted in the pancreas of mice. Gemcitibine is an example of an approved small molecule chemotherapeutic agent that is used in the clinic for pancreatic cancer, other suitable chemotherapeutic or immunotherapeutic agents are, for example, Abraxane (Paclitaxel Albumin-stabilized Nanoparticle Formulation), Afinitor (Everolimus), Erlotinib Hydrochloride, Everolimus, 5-FU (Fluorouracil Injection), Fluorouracil Injection, Gemcitabine Hydrochloride, Gemzar (Gemcitabine Hydrochloride), Irinotecan Hydrochloride Liposome, Mitomycin C, Mitozytrex (Mitomycin C), Mutamycin (Mitomycin C), Onivyde (Irinotecan Hydrochloride Liposome), Paclitaxel Albumin-stabilized Nanoparticle Formulation, Sunitinib Malate, Sutent (Sunitinib Malate), and Tarceva (Erlotinib Hydrochloride) and combinations of the same. Other suitable drug combinations for treating pancreatic cancer includes: FOLFIRINOX, GEMCITABINE-CISPLATIN, GEMCITABINE-OXALIPLATIN, and OFF. Suitable drugs for treatment for gastroenteropancreatic neuroendocrine tumors: Lanreotide Acetate, and Somatuline Depot (Lanreotide Acetate).
(§1) FIGS. 6-24 show the experimental protocol and results of in vivo studies of orthotopic tumors derived from the Murine FC1199 cell line and implanted into Kras and P53 mice.
FIGS. 18 and 19 show the protocol of a second in vivo experiment (Experiment 2).
(§2) FIGS. 21-24 show the protocol for the second invo experiment on the effectiveness of administering Peptides 1 and 2±gemcitabine. […] In FIG. 21, peptide 1 or 2 was delivered on day 11 of the study after tumor implantation and gemcitabine was delivered on day 14. […] Ascites formation is a marker of late stage pancreatic cancer and can predict mortality.

The next data set has as its system FC1199 cells. In words: in vitro FC1199 cell growth, gemcitabine repression. It counts as cell-based, Murine. The following applies: FIGS. 3 and 5. From the text: (§3) Peptides were examined in two different pancreatic cancer cell lines to determine consistency of response. We sought to determine if there was efficacy of the peptide alone, or in combination with conventional chemotherapy, i.e., does it potentiate the effects of current therapy. The two cell lines used were Human MIA PaCa2-Luc, and Murine FC1199 (derived from tumors in KPC GEM mice).
(§4) The in vitro studies used human MIA PaCa2-Luc, and Murine FC1199 cell lines.

For data set [2], the system named is FC1199 orthotopic tumors. In words: in vivo FC1199 orthotopic tumors, ascites production. Details: species or system mice.
Description: as §2

For data set [3], the system named is MIA PaCa2-Luc cancer cells. In words: in vitro proliferation of MIA PaCa2-Luc cancer cells. Type of data set: cell-based, Human. The following applies: FIG. 2.
Description: as §3
(§5) While not wishing to be bound to any particular theory, it was hypothesized that the peptides might still be effective in blocking the formation and/or removing the formation of desmoplasia or tumor stroma associated with a solid tumor alone acting to prevent and or to treat cancer and as well to providing greater access of the chemotherapeutic or immunotherapeutic agent to the tumor. […] It is believed that many large, and smaller, molecule immunotherapeutic agents will not react with Peptides 1 and 2 and they may also be used in combination with one another.
as §4

Data set [4] deals with Human MIA PaCa2-Luc, and Murine FC1199 pancreatic cancer cell lines. In words: in vitro cancer cell growth in two pancreatic cancer cell lines. Type of data set: cell-based. Conditions: FIGS. 2-5.
Description: as §3, §4

Data set [5] deals with FC1199 orthotopic tumors. In words: in vivo FC1199 orthotopic tumors, matrix deposition (desmoplasia). Conditions: no day stated. Details: species or system mice.
Description: as §5, §1

Data set [6] relates to FC1199 orthotopic tumors. The data set is described as follows: in vivo FC1199 orthotopic tumors, vessel number/vessel density (angiogenesis). More on the design: species or system mice. The following applies: no day stated.
Description: as §5

Data set [7] is described as follows: in vivo toxicity study (body weight change). Conditions: tumor-bearing mice.
Description: as §1
Ascites formation is a marker of late stage pancreatic cancer and can predict mortality.

In a further data set the test system is renal fibrosis. The following applies: disclosed in U.S. Pat. No. 7,780,949; cited from earlier work.

Entries after “also recorded” stand apart in the source; their conditions may differ. Where no end group is shown, it is not given here.

For `Nc1ccn([C@@H]2O[C@H](CO)[C@@H](O)C2(F)F)c(=O)n1` [Gemcitabine, gemcitabine, reference compound], in the data set on FC1199 orthotopic tumors [1], the “tumor burden / tumor growth as measured by pancreas weight” value is recorded as “produces a dose-dependent response to tumor burden”.

“SDRSADPNNQTGIS [Peptide 1, Mouse analog with native cysteines replaced with serines]”: the “potentiation of gemcitabine repression of FC1199 cell growth” value in the data set with FC1199 cells was “did not potentiate the effects of gemcitabine in repressing of FC1199 cell growth”. Moreover, the “number of mice with ascites / ascites formation” value in the data set on FC1199 orthotopic tumors [2] (day 25, vs control) was “reducing the formation of ascites associated with a solid tumor; also recorded: effective in reducing the number of mice with ascites”. Further, the inflammation result with FC1199 orthotopic tumors [2] (inferred from ascites data) is “reduce inflammation”. Moreover, the “proliferation of MIA PaCa2-Luc cancer cells” value in data set [3] is “do not reduce the proliferation of MIA PaCa2-Luc cancer cells”. In addition, the “cancer growth / cell proliferation in vitro” value in [4] (agent alone) is recorded as “did not slow cancer growth in vitro; also recorded: do not have an effect in cell proliferation”. Further, the “potentiation of the effects of gemcitabine in reducing cancer growth in vitro” value in data set [4] (combination with gemcitabine) was “did little or nothing to potentiate the effects of the chemotherapeutic agent gemcitabine in reducing cancer growth in vitro”. Further, the “desmoplasia as measured by matrix deposition area” value with FC1199 orthotopic tumors [5] is reported as “effective in treating desmoplasia or stroma associated with a solid tumor; also recorded: a reduction in desmoplasia as measured by matrix deposition area”. In addition, the “tumor burden in terms of pancreas weight, day 14” value with FC1199 orthotopic tumors [1] (Experiment 2, day 14, vs control) is on record as “effective in reducing the tumor burden in terms of reduced pancreas weight when compared to a control”. The “tumor burden in terms of pancreas weight, day 25” value with FC1199 orthotopic tumors [1] (Experiment 2, day 25, vs control) is reported as “effective in reducing the tumor burden in terms of reduced pancreas weight when compared to a control”. Further, the “potentiation of the therapeutic effects of gemcitabine / chemotherapeutic agent in vivo” value with FC1199 orthotopic tumors [1] is listed as “can potentiate the therapeutic effects of the standard chemotherapeutic agent gemcitabine”; in the data set on FC1199 orthotopic tumors [1] (listed as CCNp38), “treat a solid tumor more effectively than the chemotherapeutic or immunotherapeutic agents alone”. The “tumor burden / tumor growth as measured by pancreas weight” value in the data set on FC1199 orthotopic tumors [1] is “effective in reducing the growth of orthotopic FC1199 tumor burden as measured by pancreas weight; also recorded: effective in reducing tumor growth and weight”. Also, the “expansion and spread of the tumor and cancer cells” value in the data set with FC1199 orthotopic tumors [1] (overview FIG. 1) was “blocking the expansion and spread of the tumor and cancer cells”. The “angiogenesis as measured by vessel number/vessel density” value in the data set on FC1199 orthotopic tumors [6] was “reducing angiogenesis; also recorded: a reduction in angiogenesis as measured by vessel number/vessel density”.

Turning to “FSGVSSDGRSSTPH [Peptide 2, FSGVSSDGRSSTPH]”, the “toxicity (body weight change)” value in data set [7] is “non-toxic”.

B1: full-length CCN3 molecule: full-length CCN3 protein of U.S. Pat. No. 7,780,949 (protein, UniProt P48745 1-357, looked up)
chain: MQSVQSTSFCLRKQCLCLTFLLLHLLGQVAATQRCPPQCPGRCPATPPTCAPGVRAVLDGCSCCLVCARQRGESCSDLEPCDESSGLYCDRSADPSNQTGICTAVEGDNCVFDGVIYRSGEKFQPSCKFQCTCRDGQIGCVPRCQLDVLLPEPNCPAPRKVEVPGECCEKWICGPDEEDSLGGLTLAAYRPEATLGVEVSDSSVNCIEQTTEWTACSKSCGMGFSTRVTNRNRQCEMLKQTRLCMVRPCEQEPEQPTDKKGKKCLRTKKSLKAIHLQFKNCTSLHTYKPRFCGVCSDGRCCTPHNTKTIQAEFQCSPGQIVKKPVMVIGTCTCHTNCPKNNEAFLQELELKTTRGKM
modifications: full-length
With B1, the “fibrosis in an in vitro model of renal fibrosis” value in the data set on renal fibrosis was “blocks fibrosis”.
